Test results taken from US20160090556A1, “PRODUCTS COMPRISING MALODOR REDUCTION MATERIALS” (The Procter & Gamble Company, priority 2014, published 2016).

Assay: Liquid dish neat product liquid-air partition coefficient
Type: physicochemical
Conditions: not given
With `COCCOC(C)OCc1ccccc1` (stereo not drawn) [Material 768] the “Log of liquid dish neat product liquid-air partition coefficient (Comment Code K/L)” value (shortened to “Log … (Comment Code K/L)”) was “K (Log of liquid dish neat product liquid-air partition coefficient greater than or equal to −7)”. With `CCC=CCCC=CCO` [Material 865] the “Log … (Comment Code K/L)” value was “K (Log of liquid dish neat product liquid-air partition coefficient greater than or equal to −7)”. In the case of `CC(C)=CCCC(C)c1ccc(C)cc1` (stereo not drawn) [Material 713], the “Log … (Comment Code K/L)” value was “K (Log of liquid dish neat product liquid-air partition coefficient greater than or equal to −7)”. For `C=C1CCCC(C)(C)C1C=C(C)C(C)=O` (stereo not drawn) [Material 913], the “Log … (Comment Code K/L)” value was “K (Log of liquid dish neat product liquid-air partition coefficient greater than or equal to −7)”. In the case of `CC1=CC2C(C(C)C)CCC(C)(O)C2CC1` (stereo not drawn) [Material 716], the “Log … (Comment Code K/L)” value was “K (Log of liquid dish neat product liquid-air partition coefficient greater than or equal to −7)”. With `C[C@@H]1CC[C@H]2C(C)(C)[C@H]3C[C@@]12CC[C@@]3(C)O` [Material 569] the “Log … (Comment Code K/L)” value was “K (Log of liquid dish neat product liquid-air partition coefficient greater than or equal to −7)”. In the case of `CC1CCC2C(C2(C)C)C12COC(C)(C)OC2` (stereo not drawn) [Material 1036], the “Log … (Comment Code K/L)” value was “K (Log of liquid dish neat product liquid-air partition coefficient greater than or equal to −7)”.

Same assay, conditions: class code letter within Comment Code
In the case of `C=CCCCCCCCCO` [Material 470], the “Log … (Comment Code K/L)” value was “K (Log of liquid dish neat product liquid-air partition coefficient greater than or equal to −7)”. In the case of `CC1CCC(C(C)(C)O)CC2=C1CCC2C` (stereo not drawn) [Material 292], the “Log … (Comment Code K/L)” value was “K (Log of liquid dish neat product liquid-air partition coefficient greater than or equal to −7)”. With `CCCCCCCCCC(OCC)OCC` [Material 473] the “Log … (Comment Code K/L)” value was “K (Log of liquid dish neat product liquid-air partition coefficient greater than or equal to −7)”. For `COC1(OC)CCCCCCCCCCC1` [Material 10], the “Log … (Comment Code K/L)” value was “K (Log of liquid dish neat product liquid-air partition coefficient greater than or equal to −7)”. In the case of `C=CC(C)=CCCC(C)(C)O` [Material 43], the “Log … (Comment Code K/L)” value was “K (Log of liquid dish neat product liquid-air partition coefficient greater than or equal to −7)”. In the case of `C=CC(O)(CC)CCC=C(C)C` (stereo not drawn) [Material 390], the “Log … (Comment Code K/L)” value was “K (Log of liquid dish neat product liquid-air partition coefficient greater than or equal to −7)”. In the case of `CC(CCO)CCCC(C)(C)O` (stereo not drawn) [Material 249], the “Log … (Comment Code K/L)” value was “K (Log of liquid dish neat product liquid-air partition coefficient greater than or equal to −7)”.

Same assay, conditions: code letters K, L
For `Cc1n[nH]cc1-c1ccccc1` [Material 808], the “Comment Code: Log of liquid dish neat product liquid-air partition coefficient” value (“Comment Code: Log” below) was “K (Log of liquid dish neat product liquid-air partition coefficient greater than or equal to −7)”. In the case of `CCOC(=O)C=Cc1ccccc1` [Material 400], the “Comment Code: Log” value was “K (Log of liquid dish neat product liquid-air partition coefficient greater than or equal to −7)”. With `CC(C)(O)CCC1CCCCC1` [Material 496] the “Comment Code: Log” value was “K (Log of liquid dish neat product liquid-air partition coefficient greater than or equal to −7)”. For `C=CC(C)CCCC(C)(C)O` (stereo not drawn) [Material 437], the “Comment Code: Log” value was “K (Log of liquid dish neat product liquid-air partition coefficient greater than or equal to −7)”. For `C[C@@H]1CC[C@H]2C(C)(C)[C@H]3C[C@@]12CC[C@@]3(C)O` [Material 569], the “Comment Code: Log” value was “K (Log of liquid dish neat product liquid-air partition coefficient greater than or equal to −7)”. For `COc1ccccc1C=CC=O` [Material 26], the “Comment Code: Log” value was “K (Log of liquid dish neat product liquid-air partition coefficient greater than or equal to −7)”. In the case of `CC(=O)OCCc1ccccc1` [Material 832], the “Comment Code: Log” value was “K (Log of liquid dish neat product liquid-air partition coefficient greater than or equal to −7)”.
